From the supplement of paper PMC10307832

Key:
Experiment in all cases: relative viability (nuclei count vs DMSO), 5 days (fraction); higher = more cells survive
COR-L23 = tested on: COR-L23
Method in brief: (§1)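 Five library-drug doses in √10 steps were combined with a fixed anchor-drug dose, or a single drug was given alone, by pin tool to lung cancer cell lines in 1536-well plates the day after seeding. Nuclei were stained and counted after 5 days. Relative viability is the nuclei count in treated wells over that in vehicle wells, taken as the median of duplicate plates.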

ChaGo-K-1 = tested on: ChaGo-K-1
Method in brief: as §1

EMC-BAC-2 = tested on: EMC-BAC-2
Method in brief: as §1

HARA = tested on: HARA
Method in brief: as §1

HCC-15 = tested on: HCC-15
Method in brief: as §1

HCC-366 = tested on: HCC-366
Method in brief: as §1

HCC-78 = tested on: HCC-78
Method in brief: as §1

HOP-62 = tested on: HOP-62
Method in brief: as §1

LC-2-ad = tested on: LC-2-ad
Method in brief: as §1

NCI-H1395 = tested on: NCI-H1395
Method in brief: as §1

NCI-H1793 = tested on: NCI-H1793
Method in brief: as §1

NCI-H1944 = tested on: NCI-H1944
Method in brief: as §1

NCI-H1993 = tested on: NCI-H1993
Method in brief: as §1

NCI-H2023 = tested on: NCI-H2023
Method in brief: as §1

NCI-H2126 = tested on: NCI-H2126
Method in brief: as §1

NCI-H2228 = tested on: NCI-H2228
Method in brief: as §1

NCI-H23 = tested on: NCI-H23
Method in brief: as §1

NCI-H2405 = tested on: NCI-H2405
Method in brief: as §1

NCI-H838 = tested on: NCI-H838
Method in brief: as §1

SK-LU-1 = tested on: SK-LU-1
Method in brief: as §1

Work on `CCN(CC)CCCCNc1ncc2cc(-c3cc(OC)cc(OC)c3)c(NC(=O)NC(C)(C)C)nc2n1` + CC1(C)CCC(c2ccc(Cl)cc2)=C(CN2CCN(c3ccc(C(=O)NS(=O)(=O)c4ccc(N[C@H](CCN5CCOCC5)CSc5ccccc5)c(S(=O)(=O)C(F)(F)F)c4)cc3)CC2)C1 [Navitoclax] (partner 0.5 µM) yielded a relative viability (COR-L23; first compound 0.01 µM) of 1.14, a relative viability (COR-L23; first compound 0.03162 µM) of 1.12 and a relative viability (COR-L23; first compound 0.1 µM) of 1.33. It also gave a relative viability (COR-L23; first compound 0.3162 µM) of 1.18, a relative viability (COR-L23; first compound 1 µM) of 1.12 and a relative viability (ChaGo-K-1; first compound 0.01 µM) of 0.844. The relative viability (ChaGo-K-1; first compound 0.03162 µM) was 0.893, the relative viability (ChaGo-K-1; first compound 0.1 µM) was 1.49 and the relative viability (ChaGo-K-1; first compound 0.3162 µM) was 1.16. It also gave a relative viability (ChaGo-K-1; first compound 1 µM) of 0.716, a relative viability (EMC-BAC-2; first compound 0.01 µM) of 1.38 and a relative viability (EMC-BAC-2; first compound 0.03162 µM) of 1.24. It also gave a relative viability (EMC-BAC-2; first compound 0.1 µM) of 1.24, a relative viability (EMC-BAC-2; first compound 0.3162 µM) of 1.28 and a relative viability (EMC-BAC-2; first compound 1 µM) of 0.899. For the same compound, the relative viability (HARA; first compound 0.01 µM) was 1.19, the relative viability (HARA; first compound 0.03162 µM) was 1.15 and the relative viability (HARA; first compound 0.1 µM) was 1.29. It also gave a relative viability (HARA; first compound 0.3162 µM) of 1.14, a relative viability (HARA; first compound 1 µM) of 1.04 and a relative viability (HCC-15; first compound 0.01 µM) of 0.748. The relative viability (HCC-15; first compound 0.03162 µM) was 0.724, the relative viability (HCC-15; first compound 0.1 µM) was 0.859 and the relative viability (HCC-15; first compound 0.3162 µM) was 0.784. It also gave a relative viability (HCC-15; first compound 1 µM) of 0.7, a relative viability (HCC-366; first compound 0.01 µM) of 1.16 and a relative viability (HCC-366; first compound 0.03162 µM) of 1.09. For the same compound, the relative viability (HCC-366; first compound 0.1 µM) was 1.2, the relative viability (HCC-366; first compound 0.3162 µM) was 1.27 and the relative viability (HCC-366; first compound 1 µM) was 1.2. The relative viability (HCC-78; first compound 0.03162 µM) was 0.75, the relative viability (HCC-78; first compound 0.1 µM) was 0.618 and the relative viability (HCC-78; first compound 0.3162 µM) was 0.809. It also gave a relative viability (HCC-78; first compound 1 µM) of 0.64, a relative viability (HOP-62; first compound 0.01 µM) of 1.15 and a relative viability (HOP-62; first compound 0.03162 µM) of 1.13. It also gave a relative viability (HOP-62; first compound 0.1 µM) of 1.29, a relative viability (HOP-62; first compound 0.3162 µM) of 0.974 and a relative viability (HOP-62; first compound 1 µM) of 1.06. It also gave a relative viability (LC-2-ad; first compound 0.01 µM) of 0.425, a relative viability (LC-2-ad; first compound 0.03162 µM) of 0.372 and a relative viability (LC-2-ad; first compound 0.1 µM) of 0.558. The relative viability (LC-2-ad; first compound 0.3162 µM) was 0.511, the relative viability (LC-2-ad; first compound 1 µM) was 0.487 and the relative viability (NCI-H1395; first compound 0.03162 µM) was 1.1. For the same compound, the relative viability (NCI-H1395; first compound 0.1 µM) was 1.09, the relative viability (NCI-H1395; first compound 0.3162 µM) was 1.17 and the relative viability (NCI-H1395; first compound 1 µM) was 0.751. It also gave a relative viability (NCI-H1793; first compound 0.01 µM) of 0.988, a relative viability (NCI-H1793; first compound 0.1 µM) of 0.326 and a relative viability (NCI-H1793; first compound 0.3162 µM) of 0.439. It also gave a relative viability (NCI-H1793; first compound 1 µM) of 0.326, a relative viability (NCI-H1944; first compound 0.01 µM) of 1.18 and a relative viability (NCI-H1944; first compound 0.03162 µM) of 1.02. The relative viability (NCI-H1944; first compound 0.1 µM) was 1.08, the relative viability (NCI-H1944; first compound 0.3162 µM) was 1.09 and the relative viability (NCI-H1944; first compound 1 µM) was 1.02. The relative viability (NCI-H1993; first compound 0.01 µM) was 0.904, the relative viability (NCI-H1993; first compound 0.03162 µM) was 0.954 and the relative viability (NCI-H1993; first compound 0.1 µM) was 0.963. For the same compound, the relative viability (NCI-H1993; first compound 0.3162 µM) was 1.07, the relative viability (NCI-H1993; first compound 1 µM) was 0.895 and the relative viability (NCI-H2023; first compound 0.01 µM) was 1.04. For the same compound, the relative viability (NCI-H2023; first compound 0.03162 µM) was 0.997, the relative viability (NCI-H2023; first compound 0.1 µM) was 1 and the relative viability (NCI-H2023; first compound 0.3162 µM) was 1.04. For the same compound, the relative viability (NCI-H2023; first compound 1 µM) was 0.823, the relative viability (NCI-H2126; first compound 0.01 µM) was 0.904 and the relative viability (NCI-H2126; first compound 0.03162 µM) was 0.845. It also gave a relative viability (NCI-H2126; first compound 0.1 µM) of 0.916, a relative viability (NCI-H2126; first compound 0.3162 µM) of 0.927 and a relative viability (NCI-H2126; first compound 1 µM) of 0.828. For the same compound, the relative viability (NCI-H2228; first compound 0.01 µM) was 0.841, the relative viability (NCI-H2228; first compound 0.03162 µM) was 0.866 and the relative viability (NCI-H2228; first compound 0.1 µM) was 0.979. The relative viability (NCI-H2228; first compound 0.3162 µM) was 0.884, the relative viability (NCI-H2228; first compound 1 µM) was 0.541 and the relative viability (NCI-H23; first compound 0.01 µM) was 0.744. The relative viability (NCI-H23; first compound 0.03162 µM) was 0.85, the relative viability (NCI-H23; first compound 0.1 µM) was 1.09 and the relative viability (NCI-H23; first compound 0.3162 µM) was 0.921. The relative viability (NCI-H23; first compound 1 µM) was 0.843, the relative viability (NCI-H2405; first compound 0.01 µM) was 0.707 and the relative viability (NCI-H2405; first compound 0.03162 µM) was 0.772. For the same compound, the relative viability (NCI-H2405; first compound 0.1 µM) was 0.853, the relative viability (NCI-H2405; first compound 0.3162 µM) was 0.901 and the relative viability (NCI-H2405; first compound 1 µM) was 0.789. The relative viability (NCI-H838; first compound 0.01 µM) was 1.18, the relative viability (NCI-H838; first compound 0.03162 µM) was 1.12 and the relative viability (NCI-H838; first compound 0.1 µM) was 1.44. It also gave a relative viability (NCI-H838; first compound 0.3162 µM) of 1.07, a relative viability (NCI-H838; first compound 1 µM) of 0.809 and a relative viability (SK-LU-1; first compound 0.01 µM) of 1.02. For the same compound, the relative viability (SK-LU-1; first compound 0.03162 µM) was 0.894, the relative viability (SK-LU-1; first compound 0.1 µM) was 1.08 and the relative viability (SK-LU-1; first compound 0.3162 µM) was 1.18. The relative viability (SK-LU-1; first compound 1 µM) was 0.639.
